Test: recombinant barcode read abundance after kanamycin selection (control-corrected) (log10(CPM+1)); higher = more efficient recombination; sequences stand for … in AGTGCAGAGAAAATCGGCCAGTTTTCTCTGCCTGCAGTCCGCATGCCGT…ATTTATGCAGCGGACTGCCTTTCTCCCAAAGTGATAAACCGGACAGTATCATGGACCGGTTTTCCCGGTAATCCGTATTTGCAAGGTTGGTTTCACT; site = the 11-nt target
Protocol: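 Same pooled E. coli target screen (IS621 bridge recombinase, kanamycin selection, control-corrected CPM, mean of 2 biological replicates). Here the two core-binding nucleotides of the LTG and RTG of the bridge RNA target-binding loop are mutated. Target and donor CT cores are held constant, and the other 9 guide positions match the target. The target is read from the library oligo sequence. Molecule = full bridge RNA written as DNA: nt 1-80 from the library oligo, rest WT scaffold.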

Row | Sequence | recombinant barcode read abundance (log10)
1 | AAACACAACTGGGTTCTAACCTGTTGCCTGT [AAACACACTAG_LTGcore_AC_RTGcore_AC] (site AAACACACTAG) (LTG core: AC, RTG core: AC) | 0.0446
2 | AAACACAATTGGGTTCTAACCTGTTGCCTAT [AAACACACTAG_LTGcore_AT_RTGcore_AT] (site AAACACACTAG) (LTG core: AT, RTG core: AT) | 0.209
3 | AAACACACTTGGGTTCTAACCTGTTGCCTCT [AAACACACTAG_LTGcore_CT_RTGcore_AG] (site AAACACACTAG) (LTG core: CT, RTG core: AG) | 2.46
4 | AAACACACTTGGGTTCTAACCTGTTGCCTGA [AAACACACTAG_LTGcore_CT_RTGcore_TC] (site AAACACACTAG) (LTG core: CT, RTG core: TC) | 1.19
5 | AAACACACTTGGGTTCTAACCTGTTGCCTTC [AAACACACTAG_LTGcore_CT_RTGcore_GA] (site AAACACACTAG) (LTG core: CT, RTG core: GA) | 0.477
6 | AAACACACTTGGGTTCTAACCTGTTGCCTTG [AAACACACTAG_LTGcore_CT_RTGcore_CA] (site AAACACACTAG) (LTG core: CT, RTG core: CA) | 0.248
7 | AAACACAGATGGGTTCTAACCTGTTGCCTTC [AAACACACTAG_LTGcore_GA_RTGcore_GA] (site AAACACACTAG) (LTG core: GA, RTG core: GA) | 0.152
8 | AAACACAGCTGGGTTCTAACCTGTTGCCTAG [AAACACACTAG_LTGcore_GC_RTGcore_CT] (site AAACACACTAG) (LTG core: GC, RTG core: CT) | 0.0255
9 | AAACACAGGTGGGTTCTAACCTGTTGCCTAG [AAACACACTAG_LTGcore_GG_RTGcore_CT] (site AAACACACTAG) (LTG core: GG, RTG core: CT) | 0.463
10 | AAACACAGGTGGGTTCTAACCTGTTGCCTCC [AAACACACTAG_LTGcore_GG_RTGcore_GG] (site AAACACACTAG) (LTG core: GG, RTG core: GG) | 0.0137
11 | AAACACATGTGGGTTCTAACCTGTTGCCTAG [AAACACACTAG_LTGcore_TG_RTGcore_CT] (site AAACACACTAG) (LTG core: TG, RTG core: CT) | 0.247
12 | AAACACATTTGGGTTCTAACCTGTTGCCTAA [AAACACACTAG_LTGcore_TT_RTGcore_TT] (site AAACACACTAG) (LTG core: TT, RTG core: TT) | 0.889
13 | AAACAGTAATGGGTTCTAACCTGTTGCCTTT [AAACAGTCTAG_LTGcore_AA_RTGcore_AA] (site AAACAGTCTAG) (LTG core: AA, RTG core: AA) | 0.199
14 | AAACAGTCCTGGGTTCTAACCTGTTGCCTGG [AAACAGTCTAG_LTGcore_CC_RTGcore_CC] (site AAACAGTCTAG) (LTG core: CC, RTG core: CC) | 0.0864
15 | AAACAGTCTTGGGTTCTAACCTGTTGCCTAC [AAACAGTCTAG_LTGcore_CT_RTGcore_GT] (site AAACAGTCTAG) (LTG core: CT, RTG core: GT) | 0.553
16 | AAACAGTCTTGGGTTCTAACCTGTTGCCTCG [AAACAGTCTAG_LTGcore_CT_RTGcore_CG] (site AAACAGTCTAG) (LTG core: CT, RTG core: CG) | 1.3
17 | AAACAGTCTTGGGTTCTAACCTGTTGCCTGT [AAACAGTCTAG_LTGcore_CT_RTGcore_AC] (site AAACAGTCTAG) (LTG core: CT, RTG core: AC) | 1.66

Row | Sequence | recombinant barcode read abundance (log10)
18 | AAACAGTCTTGGGTTCTAACCTGTTGCCTTT [AAACAGTCTAG_LTGcore_CT_RTGcore_AA] (site AAACAGTCTAG) (LTG core: CT, RTG core: AA) | 1.32
19 | AAACAGTGCTGGGTTCTAACCTGTTGCCTGC [AAACAGTCTAG_LTGcore_GC_RTGcore_GC] (site AAACAGTCTAG) (LTG core: GC, RTG core: GC) | 0.0997
20 | AAACAGTGGTGGGTTCTAACCTGTTGCCTCC [AAACAGTCTAG_LTGcore_GG_RTGcore_GG] (site AAACAGTCTAG) (LTG core: GG, RTG core: GG) | 0.0531
21 | AAACAGTGTTGGGTTCTAACCTGTTGCCTAC [AAACAGTCTAG_LTGcore_GT_RTGcore_GT] (site AAACAGTCTAG) (LTG core: GT, RTG core: GT) | 0.0266
22 | AAACAGTGTTGGGTTCTAACCTGTTGCCTAG [AAACAGTCTAG_LTGcore_GT_RTGcore_CT] (site AAACAGTCTAG) (LTG core: GT, RTG core: CT) | 0.0452
23 | AAACAGTTGTGGGTTCTAACCTGTTGCCTAG [AAACAGTCTAG_LTGcore_TG_RTGcore_CT] (site AAACAGTCTAG) (LTG core: TG, RTG core: CT) | 0.029
24 | AAACAGTTTTGGGTTCTAACCTGTTGCCTAA [AAACAGTCTAG_LTGcore_TT_RTGcore_TT] (site AAACAGTCTAG) (LTG core: TT, RTG core: TT) | 0.182
25 | AAACATGAGTGGGTTCTAACCTGTTGCCTAG [AAACATGCTAG_LTGcore_AG_RTGcore_CT] (site AAACATGCTAG) (LTG core: AG, RTG core: CT) | 0.109
26 | AAACATGAGTGGGTTCTAACCTGTTGCCTCT [AAACATGCTAG_LTGcore_AG_RTGcore_AG] (site AAACATGCTAG) (LTG core: AG, RTG core: AG) | 0.191
27 | AAACATGCGTGGGTTCTAACCTGTTGCCTCG [AAACATGCTAG_LTGcore_CG_RTGcore_CG] (site AAACATGCTAG) (LTG core: CG, RTG core: CG) | 0.135
28 | AAACATGCTTGGGTTCTAACCTGTTGCCTAT [AAACATGCTAG_LTGcore_CT_RTGcore_AT] (site AAACATGCTAG) (LTG core: CT, RTG core: AT) | 0.681
29 | AAACATGCTTGGGTTCTAACCTGTTGCCTCA [AAACATGCTAG_LTGcore_CT_RTGcore_TG] (site AAACATGCTAG) (LTG core: CT, RTG core: TG) | 0.288
30 | AAACATGCTTGGGTTCTAACCTGTTGCCTCG [AAACATGCTAG_LTGcore_CT_RTGcore_CG] (site AAACATGCTAG) (LTG core: CT, RTG core: CG) | 1.02
31 | AAACATGCTTGGGTTCTAACCTGTTGCCTCT [AAACATGCTAG_LTGcore_CT_RTGcore_AG] (site AAACATGCTAG) (LTG core: CT, RTG core: AG) | 0.435
32 | AAACATGCTTGGGTTCTAACCTGTTGCCTGT [AAACATGCTAG_LTGcore_CT_RTGcore_AC] (site AAACATGCTAG) (LTG core: CT, RTG core: AC) | 1.55
33 | AAACATGCTTGGGTTCTAACCTGTTGCCTTC [AAACATGCTAG_LTGcore_CT_RTGcore_GA] (site AAACATGCTAG) (LTG core: CT, RTG core: GA) | 0.572
34 | AAACATGCTTGGGTTCTAACCTGTTGCCTTG [AAACATGCTAG_LTGcore_CT_RTGcore_CA] (site AAACATGCTAG) (LTG core: CT, RTG core: CA) | 1.17

Source: the supplement of paper PMC11208160
